For one test, the system named is MATB.WT. Briefly: Soft agar colony formation disk diffusion assay. The format is cell-based, rat. The method, boiled down:
(§1)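 Tumour cells plated in upper 0.4% Noble agar layer in RPMI-1066; bottom layer 0.8% Noble agar with Tryptic Soy Broth. Drug in DMSO/water dried onto a 6.5 mm disk placed on the cell layer. Incubated 10-20 days; anti-clonogenic activity taken as inhibition zone width.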

The subject of another test is MATB/ADR. As to the kind of experiment: Soft agar colony formation disk diffusion assay. The format is cell-based, rat. Summed up:
as §1
(A growth-free zone around the sample is the usual read-out of agar diffusion tests.)

For another test, the system named is B16. Briefly: Soft agar colony formation disk diffusion assay. The format is cell-based, murine. The method, boiled down: as §1
Another test concerns M5076. Briefly: Soft agar colony formation disk diffusion assay. The format is cell-based, murine. Summed up:
as §1

In a further test the test system is P388/ADR. As to the kind of experiment: Soft agar colony formation disk diffusion assay. The format is cell-based, murine. The method, boiled down: as §1
In a further test the test system is P388. Briefly: Soft agar colony formation disk diffusion assay. The format is cell-based, murine. Summed up:
as §1

The subject of the next test is LOX. Briefly: Microculture tetrazolium assay. The format is cell-based. Conditions: read-out: IC50.

This is an account of results in patent publication US5593970A, “Heterocyclic anthracycline analogs” (priority 1994, dated 1997).

On to “3-Carbomethoxy-1,11-dihydroxy-1,2,3,4-tetrahydro-(2-oxygen)naphthacene-5,12-dione 3-Carbomethoxy-1,6-dihydroxy-1,2,3,4-tetrahydro-(2-oxygen)naphthacene-5,12-dione [BCH-711]”, for which the zone of inhibition in the test on MATB.WT (10 μg/DISK) worked out at 27.0 ± 4.2 Zone Units; in the test with MATB.WT (100 μg/DISK), 137.0 ± 21.2 Zone Units; in the test on MATB/ADR (10 μg/DISK), 45.5 ± 21.9 Zone Units; in the test with MATB/ADR (100 μg/DISK) it was 107.0 ± 21.9 Zone Units; with B16 (10 μg/DISK), 27.0 ± 4.2 Zone Units; in the test on B16 (100 μg/DISK), 137.0 ± 21.2 Zone Units. For the same compound, the zone of inhibition came to 55.0 ± 8.4 Zone Units with M5076 (10 μg/DISK); 198.0 ± 21.2 Zone Units with M5076 (100 μg/DISK); 40.0 ± 20.0 Zone Units in the test with P388/ADR (10 μg/DISK); 150.0 ± 30.0 Zone Units with P388/ADR (100 μg/DISK); 45.5 ± 21.9 Zone Units in the test on P388 (10 μg/DISK); 183.0 ± 0.0 Zone Units in the test with P388 (100 μg/DISK). Moreover, the “cross resistance with adriamycin, MATB/ADR vs MATB.WT” value in the test on MATB/ADR is on record as “greater cytotoxicity in the resistant breast tumor cell line”. The IC50 in the test on LOX amounted to 11.5 µM.

Regarding `CCOC(=O)C1Cc2c(c(OC)c3c(c2OC)C(=O)c2ccccc2C3=O)CS1` (stereo not shown) [BCH-717], the zone of inhibition in the test with MATB.WT (10 μg/DISK) is 0 Zone Units; in the test with MATB.WT (100 μg/DISK), 0 Zone Units; with MATB/ADR (10 μg/DISK), 0 Zone Units; in the test with MATB/ADR (100 μg/DISK) it was 0 Zone Units; with B16 (10 μg/DISK), 0 Zone Units; with B16 (100 μg/DISK), 106.0 ± 64.3 Zone Units. The zone of inhibition stood at 18.3 Zone Units in the test on M5076 (10 μg/DISK); 39.5 ± 30.4 Zone Units in the test on M5076 (100 μg/DISK); 0 Zone Units in the test with P388/ADR (10 μg/DISK); 0 Zone Units with P388/ADR (100 μg/DISK); 0 Zone Units in the test with P388 (10 μg/DISK); 122.0 ± 0.0 Zone Units with P388 (100 μg/DISK). In addition, the IC50 with LOX was above 100 µM.

Take `CC(=O)Oc1c2c(c(O)c3ccccc13)C(=O)C1=C(CC(C(C)=O)OC1)C2=O` (stereo not shown) [BCH-721]: the zone of inhibition in the test on MATB.WT (10 μg/DISK) is on record as 33.0 ± 4.2 Zone Units; in the test with MATB.WT (100 μg/DISK), 143.0 ± 12.7 Zone Units; in the test on MATB/ADR (10 μg/DISK), 45.5 ± 21.9 Zone Units; in the test on MATB/ADR (100 μg/DISK) it was 137.0 ± 21.2 Zone Units; in the test with B16 (10 μg/DISK) it was 76.0 ± 21.2 Zone Units; in the test on B16 (100 μg/DISK) it was 198.0 ± 21.2 Zone Units. Moreover, the zone of inhibition with M5076 (10 μg/DISK) is 78.0 ± 18.3 Zone Units; with M5076 (100 μg/DISK), 259.0 ± 21.2 Zone Units; in the test on P388/ADR (10 μg/DISK), 21.0 ± 21.2 Zone Units; with P388/ADR (100 μg/DISK), 183.0 ± 86.2 Zone Units; with P388 (10 μg/DISK), 45.5 ± 21.9 Zone Units; in the test with P388 (100 μg/DISK), 137.0 ± 21.2 Zone Units. Besides, the IC50 in the test on LOX was 24.9 µM.

As a reminder, the IC50 is the concentration that inhibits the measured activity by half.
